According to publication PMC8880129, “Plant- and Bacteria-Derived Compounds with Anti-Philasterides dicentrarchi Activity” (Pathogens, 2022):
Where two headings read alike, the source gives them in different places.

Experiments:
[1] = tested on: Philasterides dicentrarchi; assay: microbe, parasite or virus in culture; details: for Ciliate Mortality 3 h (%) / parasites killed after 24 h / Growth Inhibition 24 h (%): 100 μM, culture medium; for Ciliate Mortality 3 h (%) / Growth Inhibition 24 h (%): mean ± SD of three replicates; for mortality at 100 µM / GI50 / inhibition at 100 µM: Philasterides dicentrarchi; for Ciliate Mortality 3 h (%) / mortality at 100 µM: 3 h
Experimental: P. dicentrarchi (isolate I1), obtained from an outbreak of scuticociliatosis in cultured turbot in Galicia, was routinely cultured at 18 °C in complete sterile L15 medium (Leibovitz, PAA Laboratories GmbH, 1% salinity, pH 7.2) containing 90 mg/L each of adenosine, cytidine, and uridine, 150 mg/L of guanosine, 5 g/L of glucose, 400 mg/L of L-α-phosphatidylcholine, 200 mg/L of Tween 80, 10% of heat-inactivated foetal bovine serum (FBS), and 10 mL/L of 100X antibiotic–antimycotic solution (100 units/mL of penicillin G, 0.1 mg/mL of streptomycin sulphate and 0.25 mg/mL of amphotericin B), as previously described. Alternatively, ciliates were cultured in seawater with autoclaved marine bacteria (10^6 cells/mL) supplied as food at 21 °C. The ciliates were cultured under normoxic conditions in tissue culture flasks fitted with vented caps that enabled aeration of the culture medium.
We tested the toxicity to P. dicentrarchi of 26 compounds of natural origin (Table 1). The compounds were prepared in 10 mM stock solutions in dimethyl sulfoxide (DMSO) and maintained at −20 °C until use. In addition, the Pseudomonas H6 lipopeptide surfactant (PS) was prepared, lyophilised and stored at −20 °C [37]. A stock solution of PS was prepared in distilled water (1000 ppm) and diluted in culture medium or seawater at the final concentrations used in each assay and sterile filtered (through 0.2 µm filters) before being added to the parasites or EPC cells.
The anticiliate activity was assayed as previously described, with minor modifications. Ciliates were concentrated by centrifugation at 650× g for 5 min and resuspended in a medium at the concentration required for the assays. All experiments were carried out in triplicate. Wells containing ciliates in a culture medium or seawater without the test compounds were assayed as negative controls. To rule out any possible effects of the solvent (DMSO), triplicate wells with a culture medium or seawater containing the highest concentration of DMSO used (up to 1%) were also included. […] In these assays, the compounds were diluted in 1 mL of culture medium or seawater and added to the wells of 24-well sterile culture plates containing 2.5 × 10^4 ciliates per well, at final concentrations of […], 6.25, 12.5, 25, 50, and 100 µM in culture medium. The effects of the compounds on the motility and morphology of the ciliates were monitored periodically (at 30 min, 1, 2, 3, 24, and 48 h) under an inverted optical microscope. Ciliates were considered dead when they lysed and were not motile. The results obtained are expressed as percentage mortality for each experimental group. To estimate the total number of ciliates per well, the ciliates were inactivated by adding 0.25% glutaraldehyde and counted in a haemocytometer under an optical microscope. The lowest dose of the selected compounds resulting in 100% ciliate mortality (LC100) was assessed at 1, 2, and 3 h after incubation of parasites with sample dilutions (from 0 to 100 μg/mL, in 10 μg intervals). The concentration that inhibited 50% of ciliate growth (GI50), in comparison with the control group, was calculated with Excel software (Microsoft Office; Microsoft, Redmond, WA, USA) by plotting the dose-response data (log dose-per cent of growth inhibition) and applying linear regression (y = mx + b) for data fitting. The values were then calculated from the equation log GI50 = (50 − b)/m, where m is the slope y1 − y2/x1 − x2, and b is the intercept of the line.

[2] = tested on: Philasterides dicentrarchi; assay: Anticiliate activity, ciliates maintained in seawater (LC100, LC50); assay type: cell-based; details: 3 h incubation
Experimental: All experiments were carried out in triplicate.

[3] = Toxicity to EPC cell line, MTT assay; assay type: cell-based, fish; details: fish
Experimental: (§1) We used the Epithelioma Papulosum Cyprini (EPC) cell line, acquired from the American Type Culture Collection (ATCC®, Manassas, VA, USA), as a control for toxicity. The cell line, kindly provided by Doctors Pereira-Dopazo and Bandin from the Aquaculture Institute of the University of Santiago de Coompostela, was cultured in MEM medium equilibrated with Hanks’ balanced salts (Gibco, Thermo Fischer Sci., Waltham, MA, USA) supplemented with 10% foetal bovine serum and 10 mL/L of 100X antibiotic–antimycotic solution. Cells were maintained subconfluent at 25 °C in a cell culture incubator and used when the confluence reached 75%.
(§2) Cell viability was then estimated by the MTT (3-(4,5-dimethylthiazol-2-yl)-2,5-diphenyl tetrazolium bromide) assay, as previously described, with minor modifications. Briefly, 100 μL of the MTT solution (1 mg/mL in phosphate-buffered saline; pH 7.2) was added to each well, and plates were incubated at 25 °C for 4 h. The yellow tetrazolium salt of MTT is reduced by mitochondrial dehydrogenases in metabolically active cells to form insoluble purple formazan crystals, which are then dissolved by the addition of DMSO (50 μL/well). Prior to the addition of MTT or DMSO, the plates were washed, and the supernatant was removed. The absorbance was measured at 540 nm in a microplate reader (Multiskan™, Thermo Fischer Sci., Waltham, MA, USA), and the relative cell viability was expressed as the mean percentage of viable cells relative to untreated cells.
(§3) In the viability assay, the possible effect of DMSO was evaluated for each compound by the inclusion of three replicate wells with MEM medium and the same DMSO concentration as in the medium. […] Control cells with only MEM were also included in the assay.

[4] = tested on: EPC cells; assay: Toxicity to EPC cell line, MTT assay; assay type: cell-based, fish; details: 24 h incubation, compound at its GI50 (24 h)
Experimental: as §1, §2, §3

[5] = tested on: P. dicentrarchi; design: method as in PMID 15212284, PMID 21987103, PMID 27334368; details: cited from earlier work
[6] = read-out: Ciliate Mortality 3 h (%), 100 μM, 3 h, culture medium, mean ± SD of three replicates
[7] = 24 h, read-out: GI50 24 h (compound concentration that inhibited 50% of parasite growth)
[8] = 24 h, read-out: Growth Inhibition 24 h (%), 100 μM, 24 h, culture medium, mean ± SD of three replicates
[9] = 48 h, read-out: GI50 48 h (compound concentration that inhibited 50% of parasite growth)

| Compound | mortality at 100 µM [1, 6] [%] | inhibition at 100 µM [1, 8] [%] | Growth Inhibition 24 h (%) ([1]; 24 h) | further results |
| --- | --- | --- | --- | --- |
| O=C(/C=C/c1ccccc1)c1ccc(O)cc1O [2′,4′-dihydroxychalcone] | > 90 | 100 |  | Ciliate Mortality 3 h (%) [1]: 99 ± 0.71%; parasites killed after 24 h ([1]; 24 h): killed all the parasites; GI50 [1, 7]: 7.54 ± 1.31 µM; GI50 [1, 9]: 5.68 ± 0.16 µM; LC100 (lowest concentration resulting in 100% ciliate mortality) [2]: 70 µM; viability at 3 h [3]: 92 ± 2.5%; viability at 24 h [3]: 89.7 ± 1.4%; EPC cells killed [4]: about 10% |
| CCCCCCc1ccc(O)cc1O [4-hexylresorcinol] | > 90 | 100 |  | Ciliate Mortality 3 h (%) [1]: 95.3 ± 4.05%; parasites killed after 24 h ([1]; 24 h): killed all the parasites; GI50 [1, 7]: 63.3 ± 3.61 µM; GI50 [1, 9]: 40.8 ± 0.11 µM |
| O=c1cc(-c2ccccc2)oc2cc(O)ccc12 [7-hydroxyflavone] | 10 ± 1.52 | 67.4 ± 2.4 |  |  |
| O=C(O)c1ccccc1 [Benzoic acid] |  |  |  | mortality at 100 µM ([1]; read-out: Ciliate Mortality 3 h (%)): 1.64 ± 0.56%; inhibition at 100 µM ([1]; 24 h, read-out: Growth Inhibition 24 h (%)): 17.4 ± 1.2% |
| O=C(O)CCCC[C@@H]1SC[C@@H]2NC(=O)N[C@@H]21 [Biotin] | 0 | 37 ± 0.72 |  |  |
| CCCCOC(=O)c1ccc(O)cc1 [Butyl 4-hydroxybenzoate] | 52.9 ± 2.39 | > 80 | 80.65 ± 2.42 | GI50 [1, 7]: 43.9 ± 6.6 µM; GI50 [1, 9]: 29.2 ± 0.35 µM |
| CC12CCC(CC1=O)C2(C)C (centres unmarked) [Camphor (1r)] |  |  | 77.42 ± 2.7 | Ciliate Mortality 3 h (%) [1]: 0% |
| C[C@@H]1CC[C@H]2C(C)(C)[C@H]3C[C@@]12CC[C@@]3(C)O [Cedrol] | 64.2 ± 3.7 | 66.67 ± 0.33 |  |  |
| C[C@H]1[C@H]2CC[C@H]3[C@@H]4CC=C5C[C@@H](N(C)C)CC[C@]5(C)[C@H]4CC[C@]23CN1C [Conessine] | 50.2 ± 4.5 | > 80 | 84.42 ± 2.42 | GI50 [1, 7]: 12 ± 0.8 µM; GI50 [1, 9]: 11.2 ± 0.65 µM |
| O=c1ccc2ccccc2o1 [Coumarin] | 8 ± 5.9 | 23.5 ± 4.12 |  |  |
| C=CCSCC=C [Diallyl sulfide] | 22.3 ± 5.1 | 38.8 ± 7.32 |  |  |
| O=c1ccc2cc(O)c(O)cc2o1 [Esculetin] | 8.2 ± 5.32 | 15.3 ± 6.32 |  |  |
| CC12CCC(CC1)C(C)(C)O2 [Eucalyptol] | 17 ± 8.42 | 35.6 ± 4.21 |  |  |
| CC1=NCCc2c1[nH]c1cc(O)ccc21.Cl.O.O [Harmalol hydrochloride dihydrate] |  |  | 40.08 ± 4.9 | Ciliate Mortality 3 h (%) [1]: 4.8 ± 1.12% |
| C[C@H]1C(=O)O[C@@H]2CCN3CC=C(COC(=O)[C@](C)(O)[C@]1(C)O)[C@H]23 [Monocrolatine] |  |  | 9.8 ± 2.11 | Ciliate Mortality 3 h (%) [1]: 6.61 ± 1.06% |
| COc1cc2c(cc1OC)-c1cc3ccc(OC)c(OC)c3c[n+]1CC2 [Palmatine chloride] | 6.8 ± 0.59 | 28.5 ± 4.25 |  |  |
| OCCc1ccccc1 [Phenylethyl alcohol] | 2.3 ± 1.4 | 30.1 ± 4.63 |  |  |
| O=C(/C=C/C=C/c1ccc2c(c1)OCO2)N1CCCCC1 [Piperine] | 42.6 ± 9.1 | > 80 | 89.04 ± 3.37 | GI50 [1, 7]: 60.7 ± 6.31 µM; GI50 [1, 9]: 44 ± 1.83 µM |
| O=C(/C=C/c1ccc(O)c(O)c1)O[C@H](Cc1ccc(O)c(O)c1)C(=O)O [Rosmarinic acid] | 27.1 ± 7.27 | 35 ± 5.51 |  |  |
| CC1(C)CCC[C@]2(C)[C@H]3CC(=O)O[C@]3(C)CC[C@@H]12 [Sclareolide] |  |  | 71.67 ± 6.92 |  |
| CC(O)C(=O)[O-].[Na+] (centres unmarked) [Sodium lactate] |  |  | 28.33 ± 3.93 | Ciliate Mortality 3 h (%) [1]: 13.76 ± 4.1% |
| O=c1ccc2ccc(O)cc2o1 [Umbelliferone] | 2.9 ± 1.89 | 44.9 ± 7.23 |  |  |
| CC(=O)c1c(O)c(C)c(O)c2c1OC1=CC(=O)C(C(C)=O)C(=O)C12C (centres unmarked) [Usnic acid] | 38.3 ± 5.52 | 68.3 ± 3.34 |  |  |
| COc1cc(/C=C/C(=O)CC(=O)/C=C/c2ccc(O)c(OC)c2)ccc1O [curcumin] |  |  |  | efficacy against P. dicentrarchi [5]: effective |
| O=C(O[C@@H]1Cc2c(O)cc(O)cc2O[C@@H]1c1cc(O)c(O)c(O)c1)c1cc(O)c(O)c(O)c1 [epigallocatechin gallate] |  |  |  | efficacy against P. dicentrarchi [5]: effective |
| O=c1c2cc(O)c(O)cc2oc2cc(O)c([C@@H]3O[C@H](CO)[C@@H](O)[C@H](O)[C@H]3O)c(O)c12 [mangiferin] |  |  |  | efficacy against P. dicentrarchi [5]: effective |
| Oc1ccc(/C=C/c2cc(O)cc(O)c2)cc1 [resveratrol] |  |  |  | efficacy against P. dicentrarchi [5]: effective |
| Garlicin [Garlicin 80%] |  |  | 42.47 ± 5.62 |  |
